# Assay results reported in US7855194B2, “Pyrimidine, quinazoline, pteridine and triazine derivatives” (Hoffmann-La Roche Inc., priority 2006, dated 2010).
# Biological target: T1, human subtype 5 somatostatin receptor (Homo sapiens, UniProt P35346)
# T1 construct: host or cells: CHO cells, stably transfected; membranes prepared from them
# Experiment: SSTR5 radioligand binding assay (125I-labeled 11-Tyr somatostatin-14 tracer, membranes of transfected CHO cells)
# Details: CHO cell membranes, Ki calculated from IC50 by Cheng-Prussoff equation
# Procedure: A CHO cell line stably transfected with a plasmid encoding the human subtype 5 somatostatin receptor (GenBank accession number D16827) was obtained from Euroscreen. Cells were cultured and used for binding and functional assays.
# Membranes of these cells were prepared by sonication in the presence of protease inhibitors and subsequent fractionating centrifugation. The protein concentration in the membrane preparation was determined using a commercial kit (BCA kit, Pierce, USA). Membranes were stored at −80° C. until use. After thawing, membranes were diluted in assay buffer (50 mM Tris-HCl at pH 7.4, 5 mM MgCl2 and 0.20% BSA) and subjected to dounce homogenization.
# For binding studies, 0.1 mL membrane suspension, corresponding to app. 6×10^−15 mol receptor, was incubated for 1 h at room temperature with 0.05 nM ^125I-labeled tracer (11-Tyr somatostatin-14, Perkin-Elmer) and either test compounds in varying concentrations or, for the determination of non-specific binding, 0.001 mM non-labeled somatostatin-14. The incubation was stopped by filtration through GF/B glassfiber filters and washing with ice-cold wash buffer (50 mM Tris-HCl at pH 7.4). The bound radioactivity was measured after application of a scintillation cocktail (Microscint 40) and expressed as disintegrations per minute (dpm).
# The receptor concentration was determined in a prior saturation experiment where a fixed, arbitrary amount of membranes was incubated with a concentration range of radio-labeled tracer. This allows estimating the total number of specific binding sites per amount of protein (i.e., Bmax), typically between 1 and 5 pmol/mg.
# The concentration of the test compound required to result in half maximal inhibition of binding of the radio-labeled tracer (IC50) was estimated from a concentration-versus-dpm graph. The binding affinity (Ki) was calculated from the IC50 by applying the Cheng-Prussoff equation for single binding sites.
# T1 sequence (P35346 whole entry): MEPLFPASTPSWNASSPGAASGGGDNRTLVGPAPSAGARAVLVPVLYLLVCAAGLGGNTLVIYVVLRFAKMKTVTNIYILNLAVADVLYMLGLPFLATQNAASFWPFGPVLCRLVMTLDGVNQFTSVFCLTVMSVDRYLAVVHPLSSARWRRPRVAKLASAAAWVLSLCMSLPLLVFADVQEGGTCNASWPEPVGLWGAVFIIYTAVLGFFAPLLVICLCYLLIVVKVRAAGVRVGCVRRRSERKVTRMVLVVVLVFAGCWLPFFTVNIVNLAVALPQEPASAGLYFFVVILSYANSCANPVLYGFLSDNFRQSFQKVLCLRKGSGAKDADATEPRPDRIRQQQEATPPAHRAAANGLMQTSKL
row,Ki,SMILES
1,0.49 µM,"CCOc1cc(CN2CCC(Nc3nc(N)c4cc(C)ccc4n3)CC2)ccc1OC [Example 8, N^2-[1-(3-Ethoxy-4-methoxy-benzyl)-piperidin-4-yl]-6-methyl-quinazoline-2,4-diamine]"
2,0.0064 µM,"CCOc1cc(CN2CCC(Nc3ncc(C#N)c(N)n3)CC2)cc(OCOC)c1I [Example 137, 4-amino-2-[1-(3-ethoxy-4-iodo-5-methoxymethoxy-benzyl)-piperidin-4-ylamino]-pyrimidine-5-carbonitrile]"
3,0.031 µM,"CCOc1cc(CN2CCC(Nc3ncc(-c4ccc(OC)cc4)cn3)CC2)ccc1Cl [Example 161, [1-(4-chloro-3-ethoxy-benzyl)-piperidin-4-yl]-[5-(4-methoxy-phenyl)-pyrimidin-2-yl]-amine]"
